# Laboratory results published in patent US20050026263A1, “Multi-functional antibodies” (THE REGENTS OF THE UNIVERSITY OF CALIFORNIA, priority 2003, published 2005).
# “Also recorded” adds a separate entry of the source.
# Columns and labels:
# antibody 2D12.5 = assay: competitive immunoassay (ELISA) of metal-DOTA complexes relative to Y-DOTA; assay type: binding, murine; conditions: for relative binding of Y-DOTA molecules with different sidechain locations (FIG. 17): Y complexes; for binding compared with the original Y^3+ complex / other rare earths: DOTA complexes, 37° C.
# Source text: FIG. 13 is graphical display showing the relative binding of metal-DOTA complexes to antibody 2D 12.5. A representative set of competitive binding curves obtained from ELISA experiments described in Example 3 below. Error bars (representing the standard error of the mean) are shown, but are generally smaller than the data points.
# To determine the metal selectivity of the antibody 2D12.5, a competitive immunoassays was used to measure the binding constants of multiple metal-DOTA complexes relative to Y^3+-DOTA.
# We examined the monoclonal antibody 2D12.5, initially developed to bind specifically to Y-DOTA for targeted radiotherapy (see, e.g., Goodwin et al., Cancer Res. 54: 5937-5946 (1994)), in order to determine the scope of its activity. To assess the metal selectivity of antibody 2D12.5, a competitive immunoassay to measure the binding constants of various metal-DOTA complexes relative to the original Y^3+ complex was developed (FIG. 12). Briefly, 2D12.5 was incubated at 37° C. in the presence of immobilized Y-DOTA and a soluble metal-DOTA competitor. The metal-DOTA concentration was varied from μM to pM in order to determine the relative binding affinity of 2D12.5 for each metal chelate in comparison to Y-DOTA. Binding was measured by standard methods known to those of skill in the art. The DOTA analog used to evaluate binding was [S]-2-(p-nitrobenzyl)-DOTA, which is similar to the original antigen.
# N85D_G54C 2D12.5 mutant = assay: permanent binding of metal-AABD and metal-NBD complexes, Western blot (Example 10); conditions: metal-NBD complexes
# Protocol: The native antibody 2D12.5 binds all rare earth DOTA complexes with high affinity (Corneillie et al., J. Am. Chem. Soc. 125:3436-37, 2003) and other metals with affinities that are weaker. […] Therefore, this mutant was selected for the present example.
# Metallation of Chelates with stable metal cations. Metals tested in this experiment included Y, La, Lu, Sr and Sc. Stock chelate concentrations were measured using a Co-57 metal binding assay (Meares et al., Anal. Biochem. 142:68-78, 1984). Stock metal solutions (approximately 0.2 M) were prepared by dissolving the appropriate gravimetrically measured rare earth chloride salt in 0.05 M HCl. As an example, YCl3 (2.5 equivalents) was added to 25 μL of NBD ([…]) dissolved in 0.1 M tetramethylammonium acetate, and the pH was adjusted to 5 by the addition of triethylamine. The metallation was allowed to proceed overnight at 50° C. Samples were promptly frozen at −70° C., and metallation efficiency was assessed using a competitive metal-binding assay with Co-57^3. Excess metal was scavenged with DTPA, which has very low affinity for the antibody (<<1%).
# Metal-AABD and metal-NBD complexes were incubated with 2D12.5 Fab mutant N85D_G54C and samples denatured, reduced and separated by SDS-PAGE, as described for Y-90 in the previous examples. […]
# 2D12.5 = assay: relative binding affinities of metal NBD/AABD complexes and DTPA to 2D12.5; design: species or system murine
# Protocol: FIG. 18 is a graphical display showing the relative binding affinities of the NBD complexes of various metal ions relative to Y-NBD.
# Relative binding affinities of NBD complexes of various metals ions relative to Y-NBD were determined by methods known in the art and described herein and shown in FIG. 18.
compound,measurement,setting,value
"O=C(O)CN1CCN(CC(=O)O)CCN(CC(=O)O)[C@H](Cc2ccc([N+](=O)[O-])cc2)CN(CC(=O)O)CC1 (single isomer, unassigned) [(R)-isomer of 2-(4-nitrobenzyl)-DOTA]","decrease of affinity as compared to the (S), Λ isomer",antibody 2D12.5; coordinated metal Y^3+ (FIG. 16),less than an order of magnitude
O=C(O)CN1CCN(CC(=O)O)CCN(CC(=O)O)[C@@H](Cc2ccc([N+](=O)[O-])cc2)CN(CC(=O)O)CC1 [NBD],"permanent bond with N85D_G54C 2D12.5, non-electrophilic negative control",N85D_G54C 2D12.5 mutant,negative
O=C(O)CN(CCN(CC(=O)O)CC(=O)O)CCN(CC(=O)O)CC(=O)O [DTPA],affinity for the antibody,2D12.5,< 1%
(5-Amino-2-methoxy-phenyl)-carboxymethyl)-DOTA,relative binding of Y-DOTA molecules with different sidechain locations (FIG. 17),antibody 2D12.5,decrease in the binding affinity
"O=C(O)CN1CCN(CC(=O)O)CCN(CC(=O)O)[C@@H](Cc2ccc([N+](=O)[O-])cc2)CN(CC(=O)O)CC1 [Y-NBD, (S)-2-(4-nitrobenzyl)-DOTA]",relative binding of Y-DOTA molecules with different sidechain locations (FIG. 17),antibody 2D12.5,clearly stronger
same,relative binding of Y-DOTA isomers (FIG. 16),antibody 2D12.5; coordinated metal Y^3+,preferred isomer for binding
same,binding rank of NBD complexes among the rare earths,2D12.5,one of the strongest binders
O=C([O-])CN1CCN(CC(=O)[O-])CCN(CC(=O)O)CCN(CC(=O)[O-])CC1.[Gd+3] [Gd-DOTA],binding compared with the original Y^3+ complex / other rare earths,antibody 2D12.5,bind more tightly; also recorded: strongest binders
O=C([O-])CN1CCN(CC(=O)[O-])CCN(CC(=O)[O-])CCN(CC(=O)[O-])CC1.[Eu+3] [Eu-DOTA],binding compared with the original Y^3+ complex / other rare earths,antibody 2D12.5,strongest binders
